{
  "source": "patent US4751295A",
  "about": "“Cephalosporin derivatives” (Bristol-Myers Company, priority 1986, dated 1988)",
  "key": {"P. aeruginosa A9843A": {"system": "P. aeruginosa A9843A", "assay": "Protective Dose50 in mice, P. aeruginosa A9843A", "format": "in vivo", "conditions": "Pseudomonas aeruginosa, read-out: PD50, P. aeruginosa A9843A", "protocol": "(§1) Table 2, below, gives the Protective Dose50 (PD50) in mice for a number of the compounds of Formula I against selected microorganisms. Table 3 gives blood levels of various compounds of Formula I upon intramuscular administration of the test compounds to mice at a dosage of 20 mg/kg."}, "S. aureus Smith": {"system": "S. aureus Smith", "assay": "Protective Dose50 in mice, S. aureus Smith", "format": "in vivo", "conditions": "for ED50: Staphylococcus aureus, read-out: PD50, S. aureus Smith", "protocol": "as §1"}, "[1]": {"assay": "blood levels upon intramuscular administration to mice", "format": "in vivo", "conditions": "mouse, im, 20 mg/kg", "protocol": "as §1"}, "[2]": {"system": "Cephalothinsensitive E. coli (2 strains), Kl. pneumoniae (1 strain) and Pr. mirabilis (2 strains)", "assay": "MIC, two-fold serial agar dilution, group (G-)-Ia", "format": "cell-based", "conditions": "Mueller-Hinton agar; 5 strains; read-out: Geometric Mean of MIC, (G-)-Ia", "protocol": "(§2) In the primary evaluation of the compounds of this invention, the Minimum Inhibitory Concentrations (MIC's) of the compounds were determined by the two-fold serial agar dilution method in Mueller-Hinton agar against 32 strains of test organisms in six groups.\n(G+)Ia: Cephalothinsensitive E. coli (2 strains), Kl. pneumoniae (1\nstrain) and Pr. mirabilis (2 strains)"}, "[3]": {"system": "Penicillinresistant S. aureus (5 strains)", "assay": "MIC, two-fold serial agar dilution, group (G+)-Ib", "format": "cell-based", "conditions": "Staphylococcus aureus, read-out: Geometric Mean of MIC, (G+)-Ib", "protocol": "as §2\n(G+)Ib: Penicillinresistant S. aureus (5 strains)"}, "[4]": {"system": "Cephalothinresistant E. coli (3 strains) and Kl. pneumoniae (2 strains)", "assay": "MIC, two-fold serial agar dilution, group (G-)-Ib", "format": "cell-based", "conditions": "Escherichia coli, read-out: Geometric Mean of MIC, (G-)-Ib, Mueller-Hinton agar; 5 strains", "protocol": "as §2\n(G-)Ib: Cephalothinresistant E. coli (3 strains) and Kl. pneumoniae (2"}, "[5]": {"system": "Ps. aeruginosa (7 strains)", "assay": "MIC, two-fold serial agar dilution, group (G-)-III", "format": "cell-based", "conditions": "Pseudomonas aeruginosa, Mueller-Hinton agar, read-out: Geometric Mean of MIC, (G-)-III", "protocol": "as §2\n(G-)III: Ps. aeruginosa (7 strains)"}, "[6]": {"system": "Penicillinsensitive S. aureus (5 strains)", "assay": "MIC, two-fold serial agar dilution, group (G+)-Ia", "format": "cell-based", "conditions": "Staphylococcus aureus, read-out: Geometric Mean of MIC, (G+)-Ia", "protocol": "as §2\n(G+)Ia: Penicillinsensitive S. aureus (5 strains)"}, "E. coli Juhl": {"system": "E. coli Juhl", "assay": "Protective Dose50 in mice, E. coli Juhl", "format": "in vivo", "conditions": "Escherichia coli, read-out: PD50, E. coli Juhl", "protocol": "as §1"}, "[7]": {"system": "M. morganii (1 strain), Ent. cloacae (2 strains) and Ser. marcescens (2 strains)", "assay": "MIC, two-fold serial agar dilution, group (G-)-II", "format": "cell-based", "conditions": "Mueller-Hinton agar; 5 strains; read-out: Geometric Mean of MIC, (G-)-II", "protocol": "as §2\n(G-)II: M. morganii (1 strain), Ent. cloacae (2 strains) and Ser."}, "[8]": {"assay": "solubility of crystalline zwitterion in saline", "format": "physicochemical", "conditions": "crystalline zwitterion form"}},
  "note": "Like-named read-outs stand apart in the source and are kept apart here.",
  "data": [
    {"smiles": "CON=C(C(=O)NC1C(=O)N2C(C(=O)[O-])=C(C=CC[n+]3ccccc3)CSC12)c1nsc(N)n1", "note": "(centres unmarked) [Compound I-1B, 7-[2-(5-Amino-1,2,4-thiadiazol-3-yl)-2-methoxyiminoacetamido]-3-[3-pyridinio-1-propen-1-yl]-3-cephem-4-carboxylate]", "values": [
      {"measurement": "ED50", "setting": "P. aeruginosa A9843A", "value": 7.7, "unit": "mg/kg"},
      {"measurement": "PD50, S. aureus Smith", "setting": "S. aureus Smith", "value": 0.65, "unit": "mg/kg"},
      {"measurement": "ED50", "setting": "S. aureus Smith", "value": 0.44, "unit": "mg/kg"},
      {"measurement": "AUC", "setting": "[1]", "value": 11000, "unit": "ng·h/mL"},
      {"measurement": "Cmax", "setting": "[1]", "value": 17000, "unit": "ng/mL"},
      {"measurement": "half-life", "setting": "[1]", "value": 21, "unit": "min"}
    ]},
    {"smiles": "CON=C(C(=O)NC1C(=O)N2C(C(=O)[O-])=C(C=CC[n+]3ccc4sc(N)nc4c3)CS[C@H]12)c1nsc(N)n1", "note": "(some centres unmarked) [Compound I-1C, 7-[2-(5-Amino-1,2,4-thiadiazol-3-yl)-2-methoxyiminoacetamido]-3-[3-(2-amino-5-thiazolo[4,5-c]pyridinio)-1-propen-1-yl]-3-cephem-4-carboxylate]", "values": [
      {"measurement": "ED50", "setting": "S. aureus Smith", "value": 0.22, "unit": "mg/kg"},
      {"measurement": "MIC", "setting": "[2]", "value": 0.0071, "unit": "µg/mL"},
      {"measurement": "MIC", "setting": "[3]", "value": 0.2, "unit": "µg/mL"},
      {"measurement": "MIC", "setting": "[4]", "value": 0.033, "unit": "µg/mL"},
      {"measurement": "MIC", "setting": "[5]", "value": 3.8, "unit": "µg/mL"},
      {"measurement": "MIC", "setting": "[6]", "value": 0.1, "unit": "µg/mL"},
      {"measurement": "AUC", "setting": "[1]", "value": 18000, "unit": "ng·h/mL"},
      {"measurement": "Cmax", "setting": "[1]", "value": 21000, "unit": "ng/mL"},
      {"measurement": "half-life", "setting": "[1]", "value": 32, "unit": "min"},
      {"measurement": "ED50", "setting": "E. coli Juhl", "value": 0.013, "unit": "mg/kg"},
      {"measurement": "MIC", "setting": "[7]", "value": 0.087, "unit": "µg/mL"}
    ]},
    {"smiles": "CON=C(C(=O)NC1C(=O)N2C(C(=O)[O-])=C(/C=C/C[n+]3cccc(C(N)=O)c3)CSC12)c1nsc(N)n1", "note": "(centres unmarked) [Compound I-1G, 7-[2-(5-Amino-1,2,4-thiadiazol-3-yl)-2-methoxyiminoacetamido]-3-[3-(3-carbamoylpyridinio)-1-propen-1-yl]-3-cephem-4-carboxylate]", "values": [
      {"measurement": "ED50", "setting": "P. aeruginosa A9843A", "value": 5.92, "unit": "mg/kg"},
      {"measurement": "ED50", "setting": "S. aureus Smith", "value": 0.96, "unit": "mg/kg"},
      {"measurement": "MIC", "setting": "[2]", "value": 0.0094, "unit": "µg/mL"},
      {"measurement": "MIC", "setting": "[3]; Mueller-Hinton agar, 5 strains", "value": 0.35, "unit": "µg/mL"},
      {"measurement": "MIC", "setting": "[4]", "value": 0.033, "unit": "µg/mL"},
      {"measurement": "MIC", "setting": "[5]", "value": 1.4, "unit": "µg/mL"},
      {"measurement": "MIC", "setting": "[6]", "value": 0.2, "unit": "µg/mL"},
      {"measurement": "ED50", "setting": "E. coli Juhl", "value": 0.021, "unit": "mg/kg"},
      {"measurement": "MIC", "setting": "[7]", "value": 0.1, "unit": "µg/mL"}
    ]},
    {"smiles": "CON=C(C(=O)NC1C(=O)N2C(C(=O)[O-])=C(/C=C/C[n+]3ccc(C(N)=O)cc3)CSC12)c1nsc(N)n1", "note": "(centres unmarked) [Compound I-1H, 7-[2-(5-Amino-1,2,4-thiadiazol-3-yl)-2-methoxyiminoacetamido]-3-[3-(4-carbamoylpyridinio)-1-propen-1-yl]-3-cephem-4-carboxylate]", "values": [
      {"measurement": "ED50", "setting": "P. aeruginosa A9843A", "value": 3.9, "unit": "mg/kg"},
      {"measurement": "ED50", "setting": "S. aureus Smith", "value": 0.39, "unit": "mg/kg"},
      {"measurement": "MIC", "setting": "[2]", "value": 0.013, "unit": "µg/mL"},
      {"measurement": "MIC", "setting": "[3]; Mueller-Hinton agar, 5 strains", "value": 0.4, "unit": "µg/mL"},
      {"measurement": "MIC", "setting": "[4]", "value": 0.043, "unit": "µg/mL"},
      {"measurement": "solubility in water (in words)", "setting": "[8]", "value": "slightly soluble in water"},
      {"measurement": "solubility", "setting": "[8]; in saline at 23° C.", "value": 6000, "unit": "µg/mL"},
      {"measurement": "MIC", "setting": "[5]", "value": 0.97, "unit": "µg/mL"},
      {"measurement": "MIC", "setting": "[6]", "value": 0.2, "unit": "µg/mL"},
      {"measurement": "AUC", "setting": "[1]", "value": 14000, "unit": "ng·h/mL"},
      {"measurement": "Cmax", "setting": "[1]", "value": 23000, "unit": "ng/mL"},
      {"measurement": "half-life", "setting": "[1]", "value": 16, "unit": "min"},
      {"measurement": "ED50", "setting": "E. coli Juhl", "value": 0.015, "unit": "mg/kg"},
      {"measurement": "MIC", "setting": "[7]", "value": 0.1, "unit": "µg/mL"}
    ]},
    {"smiles": "CON=C(C(=O)NC1C(=O)N2C(C(=O)[O-])=C(/C=C/C[n+]3ccsc3C)CSC12)c1nsc(N)n1", "note": "(centres unmarked) [Compound I-1J, 7-[2-(5-Amino-1,2,4-thiadiazol-3-yl)-2-methoxyiminoacetamido]-3-[3-(2-methylthiazolio)-1-propen-1-yl]-3-cephem-4-carboxylate]", "values": [
      {"measurement": "ED50", "setting": "S. aureus Smith", "value": 0.35, "unit": "mg/kg"},
      {"measurement": "MIC", "setting": "[2]", "value": 0.025, "unit": "µg/mL"},
      {"measurement": "MIC", "setting": "[3]; Mueller-Hinton agar, 5 strains", "value": 0.35, "unit": "µg/mL"},
      {"measurement": "MIC", "setting": "[4]", "value": 0.076, "unit": "µg/mL"},
      {"measurement": "MIC", "setting": "[5]", "value": 1.6, "unit": "µg/mL"},
      {"measurement": "MIC", "setting": "[6]; Mueller-Hinton agar, 5 strains", "value": 0.17, "unit": "µg/mL"},
      {"measurement": "AUC", "setting": "[1]", "value": 9700, "unit": "ng·h/mL"},
      {"measurement": "Cmax", "setting": "[1]", "value": 19000, "unit": "ng/mL"},
      {"measurement": "half-life", "setting": "[1]", "value": 16, "unit": "min"},
      {"measurement": "ED50", "setting": "E. coli Juhl", "value": 0.029, "unit": "mg/kg"},
      {"measurement": "MIC", "setting": "[7]", "value": 0.15, "unit": "µg/mL"}
    ]},
    {"smiles": "CO/N=C(\\C(=O)NC1C(=O)N2C(C(=O)[O-])=C(/C=C/C[n+]3cccc4c3CCC4)CSC12)c1nsc(N)n1", "note": "(centres unmarked) [Compound I-1O, 7-[2-(5-Amino-1,2,4-thiadiazol-3-yl)-2-(Z)-methoxyiminoacetamido]-3-[3-(2,3-cyclopentenopyridinio)-1-propenyl]-3-cephem-4-carboxylate]", "values": [
      {"measurement": "ED50", "setting": "S. aureus Smith", "value": 0.26, "unit": "mg/kg"},
      {"measurement": "MIC", "setting": "[2]", "value": 0.029, "unit": "µg/mL"},
      {"measurement": "MIC", "setting": "[3]; Mueller-Hinton agar, 5 strains", "value": 0.35, "unit": "µg/mL"},
      {"measurement": "MIC", "setting": "[4]", "value": 0.033, "unit": "µg/mL"},
      {"measurement": "MIC", "setting": "[5]", "value": 14, "unit": "µg/mL"},
      {"measurement": "MIC", "setting": "[6]; Mueller-Hinton agar, 5 strains", "value": 0.17, "unit": "µg/mL"},
      {"measurement": "AUC", "setting": "[1]", "value": 17000, "unit": "ng·h/mL"},
      {"measurement": "Cmax", "setting": "[1]", "value": 28000, "unit": "ng/mL"},
      {"measurement": "half-life", "setting": "[1]", "value": 32, "unit": "min"},
      {"measurement": "ED50", "setting": "E. coli Juhl", "value": 0.17, "unit": "mg/kg"},
      {"measurement": "MIC", "setting": "[7]", "value": 0.11, "unit": "µg/mL"}
    ]}
  ]
}
